Experimental data: ChEMBL document CHEMBL3734679, “Discovery of Azaindole Ureas as a Novel Class of Bacterial Gyrase B Inhibitors” (J Med Chem, 2015)
≈ marks a conversion by molar mass, not a printed value.

What was measured:
[1] = tested on: Staphylococcus aureus; test: Antibacterial activity against methicillin-resistant Staphylococcus aureus 1118 after 18 to 20 hrs by broth microdilution assay; format: functional
[2] = tested on: Enterococcus faecium; test: Antibacterial activity against Enterococcus faecium after 18 to 20 hrs by broth microdilution assay; format: functional
[3] = tested on: Staphylococcus aureus; test: Antibacterial activity against methicillin-susceptible Staphylococcus aureus 42 after 18 to 20 hrs by broth microdilution assay; format: functional
[4] = tested on: Staphylococcus aureus; test: Antibacterial activity against ciprofloxacin-resistant Staphylococcus aureus 1721 after 18 to 20 hrs by broth microdilution assay; format: functional
[5] = target: DNA gyrase subunit B (Staphylococcus aureus, UniProt P0A0K8); test: Inhibition of Staphylococcus aureus DNA GyraseB ATPase activity using linear pBR322 DNA as substrate incubated for 30 mins by fluorescence polarization analysis
[6] = tested on: Streptococcus pneumoniae; test: Antibacterial activity against Streptococcus pneumoniae after 18 to 20 hrs by broth microdilution assay; format: functional
[7] = tested on: Enterococcus faecalis; test: Antibacterial activity against Enterococcus faecalis after 18 to 20 hrs by broth microdilution assay; format: functional

Sequence of DNA gyrase subunit B (P0A0K8 whole entry): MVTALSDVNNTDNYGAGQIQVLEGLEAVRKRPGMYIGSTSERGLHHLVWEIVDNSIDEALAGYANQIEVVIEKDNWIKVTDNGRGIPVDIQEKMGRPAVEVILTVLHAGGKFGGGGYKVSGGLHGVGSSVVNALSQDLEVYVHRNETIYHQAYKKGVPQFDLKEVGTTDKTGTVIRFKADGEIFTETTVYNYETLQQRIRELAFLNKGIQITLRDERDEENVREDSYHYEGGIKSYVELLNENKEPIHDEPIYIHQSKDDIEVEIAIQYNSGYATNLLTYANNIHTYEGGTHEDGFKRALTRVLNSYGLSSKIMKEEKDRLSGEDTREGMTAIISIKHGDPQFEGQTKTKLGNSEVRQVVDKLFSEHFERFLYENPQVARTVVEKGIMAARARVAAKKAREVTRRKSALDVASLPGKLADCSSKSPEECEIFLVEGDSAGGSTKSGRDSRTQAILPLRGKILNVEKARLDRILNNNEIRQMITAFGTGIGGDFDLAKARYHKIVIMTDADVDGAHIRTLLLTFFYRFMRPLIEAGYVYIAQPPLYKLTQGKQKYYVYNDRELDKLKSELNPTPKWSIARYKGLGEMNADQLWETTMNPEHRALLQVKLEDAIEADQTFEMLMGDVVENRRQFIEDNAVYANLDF

Row | SMILES | MIC [1] [µg/mL] | MIC [2] [µg/mL] | MIC [3] [µg/mL] | MIC [4] [µg/mL] | IC50 [5] [nM] | MIC [6] [µg/mL] | MIC [7] [µg/mL]
1 | CCNC(=O)Nc1cn(-c2ncccn2)c2cc(-c3ccn(C)c(=O)c3)cnc12 | 2 (≈ 5.14 µM) | 4 (≈ 10.3 µM) | 2 (≈ 5.14 µM) | 4 (≈ 10.3 µM) | 12 | 2 (≈ 5.14 µM) | –
2 | CCNC(=O)Nc1cn(-c2nccc(C)n2)c2cc(-c3cccnc3)cnc12 | > 32 | 2 (≈ 5.36 µM) | > 32 | > 32 | 140 | 4 (≈ 10.7 µM) | 1 (≈ 2.68 µM)
3 | CCNC(=O)Nc1cn(-c2ncc(C)c(CCC(=O)O)n2)c2cc(-c3cccnc3)cnc12 | > 32 | > 32 | > 32 | > 32 | 48 | 1 (≈ 2.24 µM) | –
4 | CCNC(=O)Nc1cn(-c2ncc(Br)cn2)c2cc(-c3ccn(C)c(=O)c3)cnc12 | 1 (≈ 2.14 µM) | 1 (≈ 2.14 µM) | 1 (≈ 2.14 µM) | 1 (≈ 2.14 µM) | 94 | 1 (≈ 2.14 µM) | –
5 | CCNC(=O)Nc1cn(-c2ncc(CC)cn2)c2cc(-c3cccnc3)cnc12 | 16 (≈ 41.3 µM) | 16 (≈ 41.3 µM) | 16 (≈ 41.3 µM) | 16 (≈ 41.3 µM) | 46 | 16 (≈ 41.3 µM) | 8 (≈ 20.6 µM)
6 | CCNC(=O)Nc1nc(CO)c(-c2ccc[nH]2)s1 | – | – | 128 (≈ 481 µM) | – | 2500 | 16 (≈ 60.1 µM) | –
7 | CCNC(=O)Nc1cn(C)c2cc(-c3cccnc3)cnc12 | – | – | – | – | 1800 | – | –
8 | CCNC(=O)Nc1cn(-c2ncc(Cl)cn2)c2cc(-c3ccn(C)c(=O)c3)cnc12 | 1 (≈ 2.36 µM) | 2 (≈ 4.72 µM) | 1 (≈ 2.36 µM) | 2 (≈ 4.72 µM) | 262 | 1 (≈ 2.36 µM) | –
9 | CCNC(=O)Nc1cn(-c2ncc(Br)cn2)c2cc(-c3cccnc3)cnc12 | 2 (≈ 4.56 µM) | 2 (≈ 4.56 µM) | 1 (≈ 2.28 µM) | 2 (≈ 4.56 µM) | 128 | 1 (≈ 2.28 µM) | 0.25 (≈ 0.57 µM)
10 | CCNC(=O)Nc1cn(-c2ncccn2)c2cc(-c3cccnc3)cnc12 | 8 (≈ 22.3 µM) | 8 (≈ 22.3 µM) | 8 (≈ 22.3 µM) | 16 (≈ 44.5 µM) | < 79 | 4 (≈ 11.1 µM) | 2 (≈ 5.56 µM)
11 | CCNC(=O)Nc1cn(-c2ncc(Cl)cn2)c2cc(-c3cccnc3)cnc12 | 4 (≈ 10.2 µM) | 2 (≈ 5.08 µM) | 2 (≈ 5.08 µM) | 4 (≈ 10.2 µM) | 92 | 2 (≈ 5.08 µM) | 0.5 (≈ 1.27 µM)
12 | CCNC(=O)Nc1cn(-c2ncc(C)cn2)c2cc(-c3ccn(C)c(=O)c3)cnc12 | > 32 | > 32 | > 32 | > 32 | 13 | 4 (≈ 9.91 µM) | 0.5 (≈ 1.24 µM)
13 | CCNC(=O)Nc1cn(-c2ncccc2C)c2cc(-c3cccnc3)cnc12 | > 32 | > 32 | > 32 | > 32 | 1900 | > 32 | > 32
14 | CCNC(=O)Nc1cn(-c2ncc(C#N)cn2)c2cc(-c3cccnc3)cnc12 | > 32 | > 32 | > 32 | > 32 | 18 | > 32 | > 32
15 | CCNC(=O)Nc1cn(C2C=CCCC2)c2cc(-c3cccnc3)cnc12 (configuration not stated) | – | – | – | – | 240 | – | –
16 | C=CCn1cc(NC(=O)NCC)c2ncc(-c3cccnc3)cc21 | – | – | – | – | 430 | – | –
17 | CCNC(=O)Nc1cn(-c2ncc(OC)cn2)c2cc(-c3cccnc3)cnc12 | 8 (≈ 20.5 µM) | 8 (≈ 20.5 µM) | 4 (≈ 10.3 µM) | 8 (≈ 20.5 µM) | 143 | 4 (≈ 10.3 µM) | 1 (≈ 2.57 µM)
18 | CCNC(=O)Nc1cn(-c2ncc(F)cn2)c2cc(-c3cccnc3)cnc12 | 32 (≈ 84.8 µM) | 32 (≈ 84.8 µM) | 32 (≈ 84.8 µM) | > 32 | 127 | 32 (≈ 84.8 µM) | 32 (≈ 84.8 µM)
19 | CCNC(=O)Nc1cn(-c2nccc(CCCO)n2)c2cc(-c3cccnc3)cnc12 | 32 (≈ 76.7 µM) | 4 (≈ 9.58 µM) | 32 (≈ 76.7 µM) | 32 (≈ 76.7 µM) | 42 | 4 (≈ 9.58 µM) | 0.5 (≈ 1.2 µM)
20 | CCNC(=O)Nc1cn(-c2nccc(CCO)n2)c2cc(-c3cccnc3)cnc12 | 32 (≈ 79.3 µM) | 16 (≈ 39.7 µM) | 32 (≈ 79.3 µM) | 32 (≈ 79.3 µM) | 9 | 8 (≈ 19.8 µM) | –

Row | SMILES | MIC [1] [µg/mL] | MIC [2] [µg/mL] | MIC [3] [µg/mL] | MIC [4] [µg/mL] | IC50 [5] [nM] | MIC [6] [µg/mL] | MIC [7] [µg/mL]
21 | CCNC(=O)Nc1cn(-c2ncccn2)c2cc(-n3cnc(C(=O)NC4CC4)c3)cnc12 | 4 (≈ 9.27 µM) | 8 (≈ 18.5 µM) | 4 (≈ 9.27 µM) | 4 (≈ 9.27 µM) | 10 | 2 (≈ 4.64 µM) | –
22 | CCNC(=O)Nc1cn(C2CCN(C)CC2)c2cc(-c3cccnc3)cnc12 | – | – | – | – | 6420 | – | –
23 | CCNC(=O)Nc1nc(/C=C/c2cccnc2)c(-c2ccc[nH]2)s1 | – | – | – | – | 5800 | – | –
24 | CCNC(=O)Nc1cn(-c2ncc(CC)cn2)c2cc(-c3ccn(C)c(=O)c3)cnc12 | 1 (≈ 2.4 µM) | 0.25 (≈ 0.599 µM) | 1 (≈ 2.4 µM) | 1 (≈ 2.4 µM) | 71 | 0.25 (≈ 0.599 µM) | –
25 | CCNC(=O)Nc1cn(-c2ncc(C)c(CCCC(=O)O)n2)c2cc(-c3cccnc3)cnc12 | 8 (≈ 17.4 µM) | 8 (≈ 17.4 µM) | 8 (≈ 17.4 µM) | 8 (≈ 17.4 µM) | 15 | 0.5 (≈ 1.09 µM) | –
26 | C=CC(=O)n1cc(NC(=O)NCC)c2ncc(-c3cccnc3)cc21 | – | – | – | – | 280 | – | –
27 | CCNC(=O)Nc1cn(-c2ncc(Cl)cn2)c2cc(-c3cccnc3F)cnc12 | > 32 | > 32 | > 32 | > 32 | 6060 | > 32 | > 32
28 | CCNC(=O)Nc1cn(-c2ncc(C(F)(F)F)cn2)c2cc(-c3cccnc3)cnc12 | > 32 | > 32 | > 32 | > 32 | > 100000 | > 32 | > 32
29 | CCNC(=O)Nc1cn(C(=O)c2ccccn2)c2cc(-c3cccnc3)cnc12 | – | – | – | – | 1130 | – | –
30 | CCNC(=O)Nc1c[nH]c2cc(-c3cccnc3)cnc12 | > 32 | > 32 | > 32 | > 32 | 6500 | > 32 | > 32
31 | CCNC(=O)Nc1cn(-c2ccccn2)c2cc(-c3cccnc3)cnc12 | 16 (≈ 44.6 µM) | 8 (≈ 22.3 µM) | 16 (≈ 44.6 µM) | – | 140 | 8 (≈ 22.3 µM) | 8 (≈ 22.3 µM)
32 | CCNC(=O)Nc1cn(-c2ncc(C)cn2)c2cc(-c3cccnc3)cnc12 | 4 (≈ 10.7 µM) | 4 (≈ 10.7 µM) | 4 (≈ 10.7 µM) | 4 (≈ 10.7 µM) | 64 | 4 (≈ 10.7 µM) | 1 (≈ 2.68 µM)
33 | CCNC(=O)Nc1cn(C2CCCCC2)c2cc(-c3cccnc3)cnc12 | – | – | – | – | 350 | – | –
34 | CCNC(=O)Nc1cn(Cc2ccccc2)c2cc(-c3cccnc3)cnc12 | – | – | – | – | 3200 | – | –
35 | CCNC(=O)Nc1cn(CC(O)CO)c2cc(-c3cccnc3)cnc12 (configuration not stated) | – | – | – | – | 1220 | – | –
36 | CCNC(=O)Nc1cn(-c2ncc(Cl)cn2)c2cc(-c3cnc(C#N)nc3)cnc12 | > 32 | > 32 | > 32 | > 32 | 25 | > 32 | > 32
37 | CCNC(=O)Nc1cn(C2CCN(C)C2=O)c2cc(-c3cccnc3)cnc12 (configuration not stated) | – | – | – | – | 5290 | – | –
38 | CCNC(=O)Nc1cn(-c2ncc(Br)cn2)c2cc(-c3ccn(CCO)c(=O)c3)cnc12 | 8 (≈ 16.1 µM) | 8 (≈ 16.1 µM) | 8 (≈ 16.1 µM) | 8 (≈ 16.1 µM) | 8 | 8 (≈ 16.1 µM) | –
39 | CCNC(=O)Nc1cn(CCOC)c2cc(-c3cccnc3)cnc12 | – | – | – | – | 2400 | – | –
